Consider six compounds from paper PMC4501038 (RSC advances, 2015).

In data set [1] the test system is scopolamine-treated mice. Description: Scopolamine-induced memory impairment, Morris water maze. It counts as in vivo. As to conditions: for working memory: escape latencies trial 1 vs trial 2: each day for four days, 6c 3.9 mg/kg, scopolamine 1 mg/kg.
The subject of a further data set is rodents. As to conditions: cited from earlier work.
In the next data set the target is TRH-DE. As to conditions: read-out: Ki, inhibition of TRH-DE; cited from earlier work.
For another data set, the target named is central TRH receptors. As to conditions: read-out: Ki, binding to central TRH receptors; cited from earlier work.
For data set [2], the system named is scopolamine-treated mice. Put plainly: Scopolamine-induced memory impairment, passive avoidance test. Format: in vivo. As to conditions: rivastigmine (positive control) plus scopolamine.
The test system of data set [3] is anesthetized mice. Put plainly: Cardiovascular parameters. As to conditions: noradrenaline, dose not given.
In a further data set the test system is Swiss albino mice. Put plainly: Reversal of pentobarbital-induced sleeping time. Format: in vivo. As to conditions: 10 μmol/kg i.v.
The test system of a further data set is mice. Description: Functional observation battery. As to conditions: mouse, in vivo.
The subject of data set [4] is anesthetized mice. Put plainly: Cerebral blood flow. As to conditions: 6c 3.9 mg/kg, % change from basal. It counts as in vivo.

By Ki is commonly meant a dissociation constant, usually derived from enzyme kinetics or from competition with a known ligand.

Counter-ions that a name gives are not always drawn. Non-standard residues stand in square brackets, D forms with d. pGlu = O=C1CC[C@@H](C(=O)O)N1

For `CN1[C@@H]2C[C@@H](OC(=O)[C@H](CO)c3ccccc3)C[C@H]1[C@@H]1O[C@@H]12` [scopolamine, scopolamine hydrobromide], the “area under curve of the escape latencies in four-day trial” value in the data set on scopolamine-treated mice [1] (dose study, scopolamine (1 mg/kg i.p.) alone) came to 337.5 ± 12.2 s. In addition, the “working memory: escape latencies trial 1 vs trial 2” value (from here on “working memory … vs trial 2”) in the data set on scopolamine-treated mice [1] is “did not show any significant difference between two trials”.

Turning to “[1-methyl-(S)-4,5-dihydroorotyl)]-L-His-L-ProNH2 [TAL]”, in the data set with rodents, the “doses producing CNS effects, times lower than TRH” value is given as “about 100 times” and the “duration of antagonistic action on PB-induced sleep relative to TRH” value is “eight times longer”.

Regarding [pGlu]NP[dY][dW]-NH2, the Ki on TRH-DE is 0.151 µM; on central TRH receptors, 0.0068 µM.

Take `CCN(C)C(=O)Oc1cccc([C@H](C)N(C)C)c1` [rivastigmine]: in the data set on scopolamine-treated mice [1], the “working memory … vs trial 2” value was “significant effect on day 1, 2 and 3”. The “step through latency (retention)” value with scopolamine-treated mice [2] was determined as 235.1 ± 27.6 s.

For `NC[C@H](O)c1ccc(O)c(O)c1` [Noradrenaline], in the data set with anesthetized mice [3], the “Δ Heart Rate” value is 56.6±9 BPM, the “Δ MAP” value worked out at 42.8±2.2 mm Hg, the “Δ mean Diastolic BP” value was 37.2±3.2 mm Hg and the “Δ mean Systolic BP” value came out at 54.1±1.7 mm Hg.

Turning to `NC(=O)[C@@H]1CCCN1C(=O)[C@H](Cc1cnc[nH]1)NC(=O)[C@@H]1CCC(=O)N1` [TRH, pGlu-His-ProNH2], in the data set on Swiss albino mice (pentobarbital 50 mg/kg i.p. 10 min later, mice), the “Sleeping duration (Mean± SEM)” value came out at 53.9 ± 3.7 min. Also, the “(%) Reduction in time” value with Swiss albino mice (relative to control, pentobarbital 50 mg/kg i.p.) was determined as 42.5%. Besides, in the data set with mice, the FOB arousal entry is listed as “moderate arousal”; the “FOB gait and posture” value is recorded as “normal till three hours”; the FOB posture result is on record as “normal posture”; the FOB respiration entry was “do not affect normal respiration”. For the same compound, in the data set on mice, the “FOB spontaneous activity in open field” value is reported as “do not increase spontaneous activity”. Moreover, the “working memory … vs trial 2” value in the data set with scopolamine-treated mice [1] is “significantly decrease in trial 2 compared to trial 1 on all four days”. For the same compound, the “increase in cerebral blood flow” value in the data set on anesthetized mice [4] was determined as 93.4±2.9%.
